The values that follow come from patent US9023844B2, “Heterocyclylpyri (mi) dinylpyrazole as fungicidals” (Bayer Intellectual Property GmbH, priority 2011, dated 2015).

A short description of the series: Determination of log P values by HPLC on a reverse phase column (C18), EEC-Directive 79/831 Annex V.A8 (Methods A, B, C). The series is classed as physicochemical. The settings on record: for chromatographic logP: reverse phase C18 HPLC column. How it is done:
(§1) Note on the determination of the log P values and mass detection: The stated log P values were determined in accordance with EEC-Directive 79/831 Annex V.A8 by HPLC (High Performance Liquid Chromatography) on a reverse phase column (C18). Agilent 1100 LC system; 50*4.6 Zorbax Eclipse Plus C18 1.8 micron; eluent A: acetonitrile (0.1% formic acid); eluent B: water (0.09% formic acid); linear gradient from 10% acetonitrile to 95% acetonitrile in 4.25 mins, then 95% acetonitrile for a further 1.25 mins; oven temperature 55° C.; flow rate: 2.0 mL/min. The mass detection was effected with an Agilend MSD system.
as §1, with “HP1100;” for “Agilent 1100 LC system;”, “(0.08%” for “(0.09%”, “5%” for “10%”, “1.70 min,” for “4.25 mins,”, “1.00 min;” for “1.25 mins;”, “the Micronass ZQ2000 mass detector from Waters.” for “an Agilend MSD system.”
Note on the determination of the log P values and mass detection: The stated log P values were determined in accordance with EEC-Directive 79/831 Annex V.A8 by UPLC (Ultra Performance Liquid Chromatography) on a reverse phase column (C18). HP1100; 50*2.1 Zorbax Eclipse Plus C18 1.8 micron; eluent A: acetonitrile (0.09% formic acid); eluent B: water (0.1% formic acid); linear gradient from 10% A to 95% A in 3.25 min; oven temperature 40° C.; flow rate: 0.8 mL/min. The mass detection was effected with the LCT Premier or SQD mass detector from Waters.

Where [1] appears, read: pH 2.7, values in the synthesis examples, HPLC, reverse phase C18, read-out: log P (pH 2.7).
Where [2] appears, read: pH 2.3, intermediates of formula [IV] and [XXXVII], HPLC, reverse phase C18, read-out: LogP (pH 2.3).
Where [3] appears, read: Method C (HPLC, reverse phase C18).
[4] abbreviates: Method B (HPLC, reverse phase C18).

Where two headings read alike, the source gives them in different places.

For `O=c1cc(-c2ccc(F)cc2)[nH][nH]1` [[VII-2], 3-(4-fluorophenyl)-1H-pyrazol-5-ol], under setting [1], the chromatographic logP amounted to 1.11.
For the compound `CC1CCOc2c(Br)c(-c3ccc(F)cc3)nn21` (stereo not drawn) [[IV-6], 3-bromo-2-(4-fluorophenyl)-7-methyl-6,7-dihydro-5H-pyrazolo[5,1-b][1,3]oxazine], the chromatographic logP under setting [2] was 3.36 and the chromatographic logP under setting [1] came out at 3.36.
For `CC(=O)N1CCCn2nc(-c3ccccc3)c(-c3ccnc(N(C(C)=O)C(C)=O)c3)c21` [Example 58, N-acetyl-N-[4-(4-acetyl-2-phenyl-4,5,6,7-tetrahydropyrazolo[1,5-a]pyrimidin-3-yl)pyridin-2-yl]acetamide], the chromatographic logP is, setting by setting: (Method C (HPLC, reverse phase C18), read-out: LogP) 1.72; under setting [1], 1.72.
In the case of `Brc1c(-c2ccccc2)nn2c1OCCC2` [[IV-1], 3-bromo-2-phenyl-6,7-dihydro-5H-pyrazolo[5,1-b][1,3]oxazine], the chromatographic logP was found to be 2.66 under setting [2] and 2.66 under setting [1].
`CC(=O)Nc1cc(-c2c(-c3ccc(F)cc3)nn3c2N(C(C)=O)CCC3)ccn1` [Example 94] displayed a LogP under setting [3] of 1.26.
The compound `CC[C@H](C)CC(=O)Nc1cc(-c2c(-c3ccc(F)cc3)nn3c2OCCC3)ccn1` [Example 131] gave a lipophilicity (LogP) under setting [4] of 2.1.
For `O=C(CC1=CCCCC1)Nc1cc(-c2c(-c3ccc(F)cc3)nn3c2OCCC3)ccn1` [Example 139], the LogP under setting [4] was found to be 2.46.
For the compound `CC1CCOc2c(B3OC(C)(C)C(C)(C)O3)c(-c3ccc(F)cc3)nn21` (stereo not drawn) [[III-1], 2-(4-fluorophenyl)-7-methyl-3-(4,4,5,5-tetramethyl-1,3,2-dioxaborolan-2-yl)-6,7-dihydro-5H-pyrazolo[5,1-b][1,3]oxazine], under setting [1], the chromatographic logP is 3.5.
As for `Fc1ccc(-c2cc3n(n2)CCCO3)c(F)c1` [[VI-3], 2-(2,4-difluorophenyl)-6,7-dihydro-5H-pyrazolo[5,1-b][1,3]oxazine], the chromatographic logP runs as follows: (pH 2.3, intermediates of formula [VI], HPLC, reverse phase C18, read-out: LogP (pH 2.3)) 2.38; under setting [1], 2.38.
As for `C[C@@H]1C[C@@H](C)n2nc(-c3ccc(F)cc3)c(Br)c2O1` (racemic) [[IV-9a], rac-trans-3-bromo-2-(4-fluorophenyl)-5,7-dimethyl-6,7-dihydro-5H-pyrazolo[5,1-b][1,3]oxazine], the chromatographic logP was 3.91 under setting [2] and 3.91 under setting [1].
In turn, `CCC(=O)N1CCCn2nc(-c3ccc(F)cc3)c(-c3ccnc(N(C(C)=O)C(=O)CC)c3)c21` [Example 90] returned a LogP under setting [3] of 2.39.
Compound `CC(C)=NOC(C)C(=O)Nc1cc(-c2c(-c3ccc(F)cc3)nn3c2OCCC3)ccn1` (stereo not drawn) [Example 136] showed a LogP under setting [4] of 2.34.
Under setting [4], `O=C(CCn1ccnn1)Nc1cc(-c2c(-c3ccc(F)cc3)nn3c2OCCC3)ccn1` [Example 133] had a LogP of 1.23.
Consider `Cc1noc(C)c1C(=O)Nc1cc(-c2c(-c3ccc(F)cc3)nn3c2OCCC3)ccn1` [Example 135], for which, under setting [4], the LogP came to 2.06.
As to `Cc1cc(C(=O)Nc2cc(-c3c(-c4ccc(F)cc4)nn4c3OCCC4)ccn2)no1` [Example 134], under setting [4], the lipophilicity (LogP) turned out to be 2.53.
For the compound `Fc1ccc(-c2nn3c(c2Br)OCCC3)c(F)c1` [[IV-3], 3-bromo-2-(2,4-difluorophenyl)-6,7-dihydro-5H-pyrazolo[5,1-b][1,3]oxazine], the chromatographic logP is 2.7 under setting [2] and 2.7 under setting [1].
On to `O=C(Nc1cc(-c2c(-c3ccc(F)cc3)nn3c2OCCC3)ccn1)C1CC1(F)Cl` (stereo not drawn) [Example 116], for which, under setting [4], the LogP was determined as 2.13.
The compound `CC1(C(=O)Nc2cc(-c3c(-c4ccc(F)cc4)nn4c3OCCC4)ccn2)CC1` [Example 98] registered a lipophilicity (LogP) under setting [4] of 1.79.
`O=C(Cn1cccn1)Nc1cc(-c2c(-c3ccc(F)cc3)nn3c2OCCC3)ccn1` [Example 123] showed a log partition coefficient (LogP) under setting [4] of 1.63.
Under setting [4], `N#CC1(C(=O)Nc2cc(-c3c(-c4ccc(F)cc4)nn4c3OCCC4)ccn2)CC1` [Example 120] registered a lipophilicity (LogP) of 2.13.
The same measure, in the same setting: next, `O=C1CCC(C(=O)Nc2cc(-c3c(-c4ccc(F)cc4)nn4c3OCCC4)ccn2)C1` (stereo not drawn) [Example 112]: 1.38.

The LogP is the decadic logarithm of the partition coefficient of the neutral form, usually between octanol and water.
